Earlier results as cited in patent publication US9744299B2, “Data processing device for an anesthesia device” (Dräger Medical GmbH, priority 2012, dated 2017).
Where two headings read alike, the source gives them in different places.

Legend:
patients [1] = details: steepness of the rise of the response surface; property of the drug
patients [2] = details: effect-site concentration, 50% of patients tolerate "Shake and Shout"

In the case of `CC(C)c1cccc(C(C)C)c1O` [Propofol, propofol], the “h (Steepness)” value (patients [1]) is listed as 3.46 and the C50hyp (patients [2]; C50Prop) is listed as 2.99 µg/mL.

In the case of `FCOC(C(F)(F)F)C(F)(F)F` [sevoflurane], the C50hyp (patients [2]; C50Vol) is listed as 1.47 vol. %.
